Where two headings read alike, the source gives them in different places.

A short description of experiment [1]: Anorexia test from CNS screen (milk consumption in fasted mice). The format is in vivo. To be noted: fasted female mice, 0.5 h after dosing, 30 min milk access, ED50 estimated from quantal responses; for ED50: Mus musculus, po, 0.5 h. As for the experimental part:
Female mice weighing 16-20 grams and fasted overnight for 17-21 h are used in these studies. At 0.5 h after administration of graded oral doses of compound prepared in aqueous Methocel® (methylcellulose, viscosity 100 CPS, grade MC, Dow Chemical Co.) and 2.8% Tween 80 and dosed at 0.1 mL per 10 grams of body weight, each mouse is transferred to an individual, clear, Lucite® compartment (13.3 cm×12.7 cm×12.7 cm) with a 0.64 cm×0.64 cm wire mesh floor. Five compartments are linearly arranged in each cage unit. Inside each compartment is a section of a black Lucite® bar (13 cm×1.2 cm×1.2 cm), in the top of which are ten spot depressions (0.8 cm diameter), each containing 0.05 mL of 50% sweetened condensed milk (Borden's Eagle Brand). 30 Minutes later the mice are returned to the "shoe-box" containers and the number of milk spots consumed by each mouse is counted. Fractions of spots consumed are also estimated and counted. Five mice […] per drug dose can drink a maximum of 50 spots (2.5 mL of milk). Nine or fewer spots consumed by 5 mice is considered to indicate anorexia. ED50 values are estimated based on the quantal responses obtained.

The subject of experiment [2] is tetrabenazine-induced depression. In words: Antagonism (prevention) of tetrabenazine-induced sedation and depression in mice, orally. To be noted: tetrabenazine 32 mg/kg i.p. 30 min after compound; for ED50: Mus musculus, po, 1 h. The format is in vivo, mice (Carworth CF1 S female). The text has this: A standard procedure for detecting and comparing the antidepressant activity of the compounds of this invention, for which there is good correlation with human efficacy, is the prevention of tetrabenazine-induced sedation and depression in mice. (Everett, "The Dopa Response Potentiation Test and Its Use in Screening for Antidepressant Drugs", pp. 164-167 in Antidepressant Drugs [Proceedings of the First International Symposium], S. Garattini and M. N. G. Dukes (editors), 1967).
Groups of 10 Carworth CF1 S female mice, 18-21 g each, each fasted 1.5 h and were intubated with antagonist compounds at oral doses, such as 0, 1, 3, 9, 27 and 81 mg/kg in 0.20 mL of 1% Methocel® (methylcellulose).The mice were challenged 30 minutes later with tetrabenazine (as the methanesulfonate), 32 mg/kg intraperitoneally (dissolved in 0.20 mL 0.05% aqueous KCl at pH 2.0). One hour after administration of antagonist (30 minutes after administration of tetrabenazine) the mice were examined for signs of exploratory activity and ptosis (eye lid closure). Normal exploratory activity (relief from sedation) was recorded when a mouse, lifted by the tail from a group of 10 in a testing box and placed on a stainless steel testing box lid (12.5 inch (31.8 cm) by 8 inch (20.3 cm) with 0.33 inch mesh), either turned its head horizontally 30° in both directions or moved to the edge of the screen within 10 seconds after being placed on the screen. Relief from ptosis was recorded when, at exactly two seconds after placing the mouse facing the observer, lid closure was less than 50% in both eyes.

The test system is the same in experiment [3]. The experiment is described as above. The format is in vivo, mice (Carworth CF1 S female). To be noted: Mus musculus, po, footnote *: peak time values.
Setting [4] is: read-out: ORAL ED50 for prevention of exploratory loss, mice, oral, at one hour post-drug.
[5] abbreviates: read-out: ORAL ED50 for prevention of ptosis, mice, oral, at one hour post-drug.
[6] abbreviates: mice, oral, at one hour post-drug, 60 min.

By ED50 is commonly meant the dose that gives a 50% effect, or the effect in half of the subjects. On to `CCN1CCC(c2cccc(C(F)(F)F)c2)(C(C)(C)O)CC1` [Example 41, 4-(3'-Trifluoromethylphenyl)-α,α-dimethyl-1-ethyl-4-piperidinemethanol], for which the ED50 was 60 mg/kg in experiment [1], 0.73 mg/kg in experiment [2] (setting [4]) and 0.46 mg/kg in experiment [2] (setting [5]).

As to `CN1CCC(c2cccc(Cl)c2)(C(C)(C)O)CC1` [Example 6, 4-(3'-Chlorophenyl)-α,α,1-trimethyl-4-piperidinemethanol], the ED50 in experiment [1] was 60 mg/kg; in experiment [2] (setting [4]), 0.04 mg/kg; in experiment [2] (setting [5]) it was 0.03 mg/kg.

With `CCC(C)(O)C1(c2cccc(OC)c2)CCN(C)CC1` (stereo not drawn) [Example 17, 4-(3'-Methoxyphenyl)-α,1-dimethyl-α-ethyl-4-piperidinemethanol], the ED50 in experiment [1] is 60 mg/kg; in experiment [2] (setting [4]), 0.1 mg/kg; in experiment [2] (setting [5]) it was 0.11 mg/kg.

With `CN1CCC(c2cccc(F)c2)(C(C)(C)O)CC1` [Example 4, 4-(3'-Fluorophenyl)-α,α,1-trimethyl-4-piperidinemethanol], the ED50 was 60 mg/kg in experiment [1], 0.2 mg/kg in experiment [2] (setting [4]) and 0.12 mg/kg in experiment [2] (setting [5]).

Consider `CN1CCC(c2cccc(C(F)(F)F)c2)(C2(O)CCCC2)CC1` [Example 30, 1-[1'-Methyl-4'-(3"-trifluoromethylphenyl)-4'-piperidinyl]cyclopentanol], for which the ED50 is 60 mg/kg in experiment [1], 0.17 mg/kg in experiment [2] (setting [4]) and 0.084 mg/kg in experiment [2] (setting [5]).

Regarding `CCC(O)(CC)C1(c2cccc(Cl)c2)CCN(C)CC1` [Example 8, 4-(3'-Chlorophenyl)-α,α-diethyl-1-methyl-4-piperidinemethanol], the ED50 in experiment [1] was 20 mg/kg; in experiment [2] (setting [4]), 0.29 mg/kg; in experiment [2] (setting [5]), 0.26 mg/kg.

As for `COc1ccc2cc(C3(C(C)(C)O)CCN(C)CC3)ccc2c1` [Example 39, 4-(6'-Methoxy-2'-naphthyl)-α,α,1-trimethyl-4-piperidinemethanol], the ED50 was 60 mg/kg in experiment [1], 0.33 mg/kg in experiment [2] (setting [4]) and < 0.33 mg/kg in experiment [2] (setting [5]).

With `CCC(C)(O)C1(c2cccc(C(F)(F)F)c2)CCN(C)CC1` (stereo not drawn) [Example 31, 4-(3'-Trifluoromethylphenyl)-α,1-dimethyl-α-ethyl-4-piperidinemethanol], the ED50 in experiment [1] is 20 mg/kg; in experiment [2] (setting [4]), 0.064 mg/kg; in experiment [2] (setting [5]), 0.056 mg/kg.

For `COc1cccc(C2(C(C)(C)O)CCN(C)CC2)c1` [Example 16, 4-(3'-Methoxyphenyl)-α,α,1-trimethyl-4-piperidinemethanol], the ED50 was 0.12 mg/kg in experiment [3] (read-out: ORAL ED50 for prevention of exploratory loss (peak time value), mice, oral); 0.077 mg/kg in experiment [3] (read-out: ORAL ED50 for prevention of ptosis (peak time value), mice, oral); 60 mg/kg in experiment [1].

With `CN1CCC(c2ccc(Oc3ccccc3)cc2)(C(C)(C)O)CC1` [Example 32, 4-(4'-Phenoxyphenyl)-α,α,1-trimethyl-4-piperidinemethanol], the median effective dose (ED50) in experiment [1] was 60 mg/kg; in experiment [2] (setting [4]) it was > 81 mg/kg; in experiment [2] (setting [5]), 81 mg/kg.

Turning to `COc1cccc(C2(C(C)(C)O)CCN(Cc3ccccc3)CC2)c1OC` [Example 37, 4-(2',3'-Dimethoxyphenyl)-1-benzyl-α,α-dimethyl-4-piperidinemethanol], the figures for the ED50 in experiment [1], in experiment [2] (setting [4]) and in experiment [2] (setting [5]) were 60 mg/kg, > 81 mg/kg and 81 mg/kg, respectively.

On to `CN1CCC(c2cccc(C(F)(F)F)c2)(C(C)(C)O)CC1` [Example 2, 4-(3'-Trifluoromethylphenyl)-α,α,1-trimethyl-4-piperidinemethanol], for which the ED50 in experiment [1] is 60 mg/kg; in experiment [2] (setting [4]) it was 0.01 mg/kg; in experiment [2] (setting [5]), 0.016 mg/kg.

As to `CN1CCC(c2cccc(C(F)(F)F)c2)(C(C)(C)O)CC1` [Example 2A, 4-(3'-Trifluoromethylphenyl)-α,α,1-trimethyl-4-piperidinemethanol], in experiment [1] (oral), the ED50 for anorexia is 36 mg/kg. Further, in experiment [2] (setting [6]), the “ORAL ED50 for prevention of exploratory loss” value is listed as 0.01 mg/kg and the “ORAL ED50 for prevention of ptosis” value stood at 0.014 mg/kg.

As for `CN1CCC(c2ccc(Cl)cc2)(C(C)(C)O)CC1` [Example 7, 4-(4'-Chlorophenyl)-α,α,1-trimethyl-4-piperidinemethanol], the ED50 in experiment [1] is 20 mg/kg; in experiment [2] (setting [4]), 0.57 mg/kg; in experiment [2] (setting [5]), 0.33 mg/kg.

On to `Cc1cccc(C2(C(C)(C)O)CCN(C)CC2)c1` [Example 10, 4-(3'-Tolyl)-α,α,1-trimethyl-4-piperidinemethanol], for which the results for the ED50 in experiment [1], in experiment [2] (setting [4]) and in experiment [2] (setting [5]) were 20 mg/kg, 0.04 mg/kg and 0.04 mg/kg, respectively.

Values taken from patent publication US4485109A, “4-Aryl-4-piperidinecarbinols” (E. I. Du Pont de Nemours and Company, priority 1983, dated 1984).
